In PubChem BioAssay AID2775 (Southern Research Specialized Biocontainment Screening …, 2010):
Activity calls are given as the source filed them. How the calls were made is not given here.

What was measured:
[1] = SV40 cytopathic effect inhibition and cytotoxicity, SV40 T antigen inhibitor project, BSC cells, set 2 (AID 2775); conditions: BSC cells, SV40 CPE inhibition and viability; for viability: BSC cell viability, at 100 µM, stronger effect = lower value
[2] = tested on: BSC cells, SV40 CPE inhibition and viability; assay: as above; conditions: for EC50: measured here: SV40 T antigen ATPase

SMILES	viability [1]	CC50 [2]	EC50 [2]	outcome [1]
Cc1ccc(NC(=O)Cn2sc3ccccc3c2=O)cc1	22%	57 µM (inactive)	52.8 µM	
O=C(Cn1sc2ccccc2c1=O)Nc1ccc(F)cc1	30.5%	59 µM (inactive)	55.5 µM	
COc1ccc(NC(=O)Cn2sc3ccccc3c2=O)cc1	24.9%	73 µM (inactive)	35 µM	
COc1cccc(NC(=O)Cn2sc3ccccc3c2=O)c1	52.5%	57 µM (inactive)	69.2 µM	
O=C(Cn1sc2ccccc2c1=O)NCc1ccccc1	22.9%	58 µM (inactive)	31.8 µM	
O=C(c1cccn1-c1ccccc1)c1cccn1-c1ccccc1	110%			inactive
COc1cccc(-n2nnnc2C(Cl)(Cl)c2nnnn2-c2cccc(OC)c2)c1	99.5%			inactive
O=C(Cn1sc2ccccc2c1=O)Nc1ccc(Cl)cc1	83%			inactive
O=C(Cn1sc2ccccc2c1=O)Nc1ccccc1	24%	61 µM (inactive)	35 µM	
O=C(Cn1sc2ccccc2c1=O)Nc1cccc(C(F)(F)F)c1	87.5%			inactive
